From PMC5218480 (PLoS ONE, 2017)

Tested on: MV-4-11 cells
Test: Gene expression microarray analysis (Affymetrix PrimeView) and GSEA
Type: cell-based, human
Parameters: RFU PODN (11730768_x_at) / Fold change /veh PODN (11730768_x_at) / RFU LINC00158 (11744669_a_at) / Fold change /veh LINC00158 (11744669_a_at) / RFU DUSP10 (11751237_a_at) / Fold change /veh DUSP10 (11751237_a_at) / RFU ID3 (11757404_x_at) / Fold change /veh ID3 (11757404_x_at) / RFU PLEKHG5 (11737974_s_at) / Fold change /veh PLEKHG5 (11737974_s_at) / RFU LRRC4B (11730491_at) / Fold change /veh LRRC4B (11730491_at) / RFU GIMAP4 (11747438_a_at) / Fold change /veh GIMAP4 (11747438_a_at) / RFU KRT8 (11758183_x_at) / Fold change /veh KRT8 (11758183_x_at) / RFU CNN1 (11734310_a_at) / Fold change /veh CNN1 (11734310_a_at) / RFU VPS37D (11726825_at) / Fold change /veh VPS37D (11726825_at) / RFU C10orf10 (11716522_x_at) / Fold change /veh C10orf10 (11716522_x_at) / RFU KIR2DL2 /// KIR2DL4 /// KIR2DL5A /// KIR2DL5B /// KIR2DS1 /// KIR2DS2 /// KIR2DS3 /// KIR2DS4 /// KIR3DL3 /// KIR3DL3 /// KIR3DS1 (11738374_at) / Fold change /veh KIR2DL2 /// KIR2DL4 /// KIR2DL5A /// KIR2DL5B /// KIR2DS1 /// KIR2DS2 /// KIR2DS3 /// KIR2DS4 /// KIR3DL3 /// KIR3DL3 /// KIR3DS1 (11738374_at) / RFU C1QL1 (11718748_at) / Fold change /veh C1QL1 (11718748_at) / RFU TMPRSS4 (11747572_a_at) / Fold change /veh TMPRSS4 (11747572_a_at) / RFU HAMP (11756126_x_at) / Fold change /veh HAMP (11756126_x_at) / RFU RNFT2 (11725882_a_at) / Fold change /veh RNFT2 (11725882_a_at) / RFU NR4A2 (11747474_a_at) / Fold change /veh NR4A2 (11747474_a_at) / RFU ABCC12 (11746883_a_at) / Fold change /veh ABCC12 (11746883_a_at) / RFU TMEM136 (11760407_x_at) / Fold change /veh TMEM136 (11760407_x_at) / RFU CLDN22 /// WWC2 (11732394_at) / Fold change /veh CLDN22 /// WWC2 (11732394_at) / RFU HLA-DPB1 (11760878_x_at) / Fold change /veh HLA-DPB1 (11760878_x_at) / RFU SPINT1 (11716480_a_at) / Fold change /veh SPINT1 (11716480_a_at) / RFU GAP43 (11754022_s_at) / Fold change /veh GAP43 (11754022_s_at) / RFU A4GNT (11735810_at) / Fold change /veh A4GNT (11735810_at) / RFU PRB3 (11715151_x_at) / Fold change /veh PRB3 (11715151_x_at) / RFU TUBB4B (11761932_at) / Fold change /veh TUBB4B (11761932_at) / RFU CAPN14 (11732068_a_at) / Fold change /veh CAPN14 (11732068_a_at) / RFU TMCC2 (11721928_a_at) / Fold change /veh TMCC2 (11721928_a_at) / RFU IRGQ (11745062_a_at) / Fold change /veh IRGQ (11745062_a_at) / RFU FAM174B (11720279_a_at) / Fold change /veh FAM174B (11720279_a_at) / RFU TMPRSS4 (11748680_a_at) / Fold change /veh TMPRSS4 (11748680_a_at) / RFU FAM212B (11763350_a_at) / Fold change /veh FAM212B (11763350_a_at) / RFU PLEKHG5 (11743358_a_at) / Fold change /veh PLEKHG5 (11743358_a_at) / RFU ZSCAN30 (11745921_a_at) / Fold change /veh ZSCAN30 (11745921_a_at) / RFU CMKLR1 (11741424_a_at) / Fold change /veh CMKLR1 (11741424_a_at) / RFU LOC101060620 /// MAPK8IP1 (11723275_at) / Fold change /veh LOC101060620 /// MAPK8IP1 (11723275_at) / RFU SPTSSB (11747773_x_at) / Fold change /veh SPTSSB (11747773_x_at) / RFU PRSS12 (11739890_at) / Fold change /veh PRSS12 (11739890_at) / RFU BIN1 (11741810_x_at) / Fold change /veh BIN1 (11741810_x_at) / RFU WNT11 (11732464_a_at) / Fold change /veh WNT11 (11732464_a_at) / RFU C10orf10 (11716521_a_at) / Fold change /veh C10orf10 (11716521_a_at) / RFU C5orf56 (11738089_at) / Fold change /veh C5orf56 (11738089_at) / RFU CYB561 (11721691_x_at) / Fold change /veh CYB561 (11721691_x_at) / RFU ANKRD19P (11752326_a_at) / Fold change /veh ANKRD19P (11752326_a_at) / RFU OR2T12 /// OR2T33 /// OR2T8 (11738714_s_at) / Fold change /veh OR2T12 /// OR2T33 /// OR2T8 (11738714_s_at) / RFU VCAN (11748164_a_at) / Fold change /veh VCAN (11748164_a_at) / RFU JSRP1 (11732532_at) / Fold change /veh JSRP1 (11732532_at) / RFU KRTAP10-11 (11738290_x_at) / Fold change /veh KRTAP10-11 (11738290_x_at) / RFU MYO3A (11730013_a_at) / Fold change /veh MYO3A (11730013_a_at) / RFU EBF3 (11725865_a_at) / Fold change /veh EBF3 (11725865_a_at) / RFU CAMK2N1 (11719241_x_at) / Fold change /veh CAMK2N1 (11719241_x_at) / RFU C5orf56 (11738088_a_at) / Fold change /veh C5orf56 (11738088_a_at) / RFU OLFML3 (11715873_a_at) / Fold change /veh OLFML3 (11715873_a_at) / RFU LOC100653217 /// NTM (11731650_a_at) / Fold change /veh LOC100653217 /// NTM (11731650_a_at) / RFU MAPK11 (11762145_a_at) / Fold change /veh MAPK11 (11762145_a_at) / RFU FIZ1 (11724087_x_at) / Fold change /veh FIZ1 (11724087_x_at) / RFU OASL (11726364_x_at) / Fold change /veh OASL (11726364_x_at) / RFU SOX15 (11748057_x_at) / Fold change /veh SOX15 (11748057_x_at) / RFU CD79A (11719716_a_at) / Fold change /veh CD79A (11719716_a_at) / RFU HIST1H1D (11736915_at) / Fold change /veh HIST1H1D (11736915_at) / RFU CASKIN2 (11723855_a_at) / Fold change /veh CASKIN2 (11723855_a_at) / RFU LOC730098 (11760151_x_at) / Fold change /veh LOC730098 (11760151_x_at) / RFU OR4N2 (11742367_at) / Fold change /veh OR4N2 (11742367_at) / RFU PRRT2 (11749266_a_at) / Fold change /veh PRRT2 (11749266_a_at) / RFU SNX32 (11753110_a_at) / Fold change /veh SNX32 (11753110_a_at) / RFU CDHR5 (11726645_a_at) / Fold change /veh CDHR5 (11726645_a_at) / RFU RCAN1 (11760418_a_at) / Fold change /veh RCAN1 (11760418_a_at) / RFU FAM167A (11723789_a_at) / Fold change /veh FAM167A (11723789_a_at) / RFU FAM26E (11764081_at) / Fold change /veh FAM26E (11764081_at) / RFU ISYNA1 (11749810_s_at) / Fold change /veh ISYNA1 (11749810_s_at) / RFU ACY1 (11761880_at) / Fold change /veh ACY1 (11761880_at) / RFU 11764098_at / Fold change /veh 11764098_at / RFU SAMD14 (11745864_x_at) / Fold change /veh SAMD14 (11745864_x_at) / RFU NPB (11741838_a_at) / Fold change /veh NPB (11741838_a_at) / RFU TMPRSS6 (11731388_a_at) / Fold change /veh TMPRSS6 (11731388_a_at) / RFU KRTAP10-2 (11738614_at) / Fold change /veh KRTAP10-2 (11738614_at) / RFU ARHGAP8 /// PRR5-ARHGAP8 (11727945_x_at) / Fold change /veh ARHGAP8 /// PRR5-ARHGAP8 (11727945_x_at) / RFU KRTAP5-7 /// NADSYN1 (11734609_at) / Fold change /veh KRTAP5-7 /// NADSYN1 (11734609_at) / RFU RASL12 (11751679_a_at) / Fold change /veh RASL12 (11751679_a_at) / RFU CDKN2B (11736163_a_at) / Fold change /veh CDKN2B (11736163_a_at) / RFU PRF1 (11729649_at) / Fold change /veh PRF1 (11729649_at) / RFU, ZNF638 /// ZNF638-IT1 / Fold change vs veh, ZNF638 /// ZNF638-IT1 / RFU, PANK3 / Fold change vs veh, PANK3 / RFU, SH3YL1 / Fold change vs veh, SH3YL1 / RFU, ZEB2 / Fold change vs veh, ZEB2 / RFU, NRIP1 / Fold change vs veh, NRIP1 / RFU, PTTG1IP / Fold change vs veh, PTTG1IP / RFU, CAPN2 / Fold change vs veh, CAPN2 / RFU, MED14 / Fold change vs veh, MED14 / RFU, SNORA58 / Fold change vs veh, SNORA58 / RFU, C1orf63 / Fold change vs veh, C1orf63 / RFU, LRRFIP1 / Fold change vs veh, LRRFIP1 / RFU, NDUFAF7 / Fold change vs veh, NDUFAF7 / RFU, SLC12A2 / Fold change vs veh, SLC12A2 / RFU, IBTK / Fold change vs veh, IBTK / RFU, ESF1 / Fold change vs veh, ESF1 / Fold change vs veh, TMEM50B / RFU, TAOK1 / Fold change vs veh, TAOK1 / RFU, ACBD3 / Fold change vs veh, ACBD3 / RFU, TMA16 / Fold change vs veh, TMA16 / RFU, RWDD3 / Fold change vs veh, RWDD3 / RFU, BCAT1 / Fold change vs veh, BCAT1 / RFU, EDEM3 / Fold change vs veh, EDEM3 / RFU, TMEM33 / Fold change vs veh, TMEM33 / RFU, WDR75 / Fold change vs veh, WDR75 / RFU, AHCTF1 / Fold change vs veh, AHCTF1 / RFU, TFRC / Fold change vs veh, TFRC / RFU, ZDHHC17 / Fold change vs veh, ZDHHC17 / RFU, NOM1 / Fold change vs veh, NOM1 / RFU, ARL8B / Fold change vs veh, ARL8B / RFU, ZBTB11 / Fold change vs veh, ZBTB11 / RFU, TAMM41 / Fold change vs veh, TAMM41 / RFU, KIAA1704 /// LOC100996395 / Fold change vs veh, KIAA1704 /// LOC100996395 / RFU, ING1 / Fold change vs veh, ING1 / RFU, TRMT61B / Fold change vs veh, TRMT61B / RFU, FUBP3 / Fold change vs veh, FUBP3 / RFU, TP53 / Fold change vs veh, TP53 / RFU, TNKS2 / Fold change vs veh, TNKS2 / RFU, ZFP14 / Fold change vs veh, ZFP14 / RFU, ACTR2 / Fold change vs veh, ACTR2 / RFU, PPP3R1 / Fold change vs veh, PPP3R1 / RFU, PIK3R1 / Fold change vs veh, PIK3R1 / RFU, HNRNPA1 / Fold change vs veh, HNRNPA1 / RFU, RNF170 / Fold change vs veh, RNF170 / RFU, ZNF28 / Fold change vs veh, ZNF28 / RFU, RNGTT / Fold change vs veh, RNGTT / RFU, OGT / Fold change vs veh, OGT / RFU, BRD1 / Fold change vs veh, BRD1 / RFU, MARS / Fold change vs veh, MARS / RFU, ZNF655 / Fold change vs veh, ZNF655 / RFU, FAHD1 / Fold change vs veh, FAHD1 / RFU, BDP1 / Fold change vs veh, BDP1 / RFU, LRRCC1 / Fold change vs veh, LRRCC1 / RFU, ARID1A / Fold change vs veh, ARID1A / RFU, ZNF146 / Fold change vs veh, ZNF146 / RFU, ZNF330 / Fold change vs veh, ZNF330 / RFU, GPN3 / Fold change vs veh, GPN3 / RFU, C9orf123 / Fold change vs veh, C9orf123 / RFU, N4BP2L2 / Fold change vs veh, N4BP2L2 / RFU, ARFIP1 / Fold change vs veh, ARFIP1 / RFU, FAM179B / Fold change vs veh, FAM179B / RFU, BCL10 / Fold change vs veh, BCL10 / RFU, UHRF1BP1L / Fold change vs veh, UHRF1BP1L / RFU, BET1 / Fold change vs veh, BET1 / RFU, CNOT2 / Fold change vs veh, CNOT2 / RFU, ZNF268 / Fold change vs veh, ZNF268 / Fold change vs veh, ZNF507 / RFU, DGCR2 / Fold change vs veh, DGCR2 / RFU, WDSUB1 / Fold change vs veh, WDSUB1 / Fold change vs veh, HSP90B1 /// MIR3652 / RFU, ADSS / Fold change vs veh, ADSS / RFU, GK / Fold change vs veh, GK / RFU, ZNF148 / Fold change vs veh, ZNF148 / RFU, TAF9 / Fold change vs veh, TAF9 / RFU, SLC1A5 / Fold change vs veh, SLC1A5 / RFU, SLMO2 / Fold change vs veh, SLMO2 / RFU, ABCC4 / Fold change vs veh, ABCC4 / RFU, LOC101060439 /// RAP1B / Fold change vs veh, LOC101060439 /// RAP1B / RFU, RFX7 / Fold change vs veh, RFX7 / RFU, GTPBP10 / Fold change vs veh, GTPBP10 / RFU, CNEP1R1 / Fold change vs veh, CNEP1R1 / RFU, BIVM-ERCC5 /// ERCC5 / Fold change vs veh, BIVM-ERCC5 /// ERCC5 / RFU, ILF3 / Fold change vs veh, ILF3 / RFU 11762660_at / Fold change /veh 11762660_at / RFU VCAN (11757783_s_at) / Fold change /veh VCAN (11757783_s_at) / RFU DDX43 (11728927_at) / Fold change /veh DDX43 (11728927_at) / RFU KRT8 (11758188_x_at) / Fold change /veh KRT8 (11758188_x_at) / RFU NKD1 (11759106_at) / Fold change /veh NKD1 (11759106_at) / RFU SRD5A1 (11742802_a_at) / Fold change /veh SRD5A1 (11742802_a_at) / RFU TPSAB1 /// TPSB2 (11721975_s_at) / Fold change /veh TPSAB1 /// TPSB2 (11721975_s_at) / RFU GSTM3 (11746129_a_at) / Fold change /veh GSTM3 (11746129_a_at) / RFU IL23R (11737362_x_at) / Fold change /veh IL23R (11737362_x_at) / RFU TMEM51 (11727254_a_at) / Fold change /veh TMEM51 (11727254_a_at) / RFU PIWIL2 (11732686_x_at) / Fold change /veh PIWIL2 (11732686_x_at) / RFU ORM1 (11744905_x_at) / Fold change /veh ORM1 (11744905_x_at) / RFU CCDC152 (11743942_at) / Fold change /veh CCDC152 (11743942_at) / RFU ECM1 (11717891_a_at) / Fold change /veh ECM1 (11717891_a_at) / RFU IL23R (11748794_a_at) / Fold change /veh IL23R (11748794_a_at) / RFU TNFAIP8L3 (11732012_x_at) / Fold change /veh TNFAIP8L3 (11732012_x_at) / RFU MBOAT4 (11741988_at) / Fold change /veh MBOAT4 (11741988_at) / RFU 11764193_at / Fold change /veh 11764193_at / RFU TMEM53 (11763286_at) / Fold change /veh TMEM53 (11763286_at) / RFU MAGEB2 (11727129_at) / Fold change /veh MAGEB2 (11727129_at) / RFU TMEM200A (11744735_a_at) / Fold change /veh TMEM200A (11744735_a_at) / RFU CCDC152 (11751479_a_at) / Fold change /veh CCDC152 (11751479_a_at) / RFU FAM211A (11726209_a_at) / Fold change /veh FAM211A (11726209_a_at) / RFU RGS16 (11746705_a_at) / Fold change /veh RGS16 (11746705_a_at) / RFU VCAN (11755009_s_at) / Fold change /veh VCAN (11755009_s_at) / RFU RHOB (11743442_s_at) / Fold change /veh RHOB (11743442_s_at) / RFU RGS16 (11720943_a_at) / Fold change /veh RGS16 (11720943_a_at) / RFU RGS16 (11720944_at) / Fold change /veh RGS16 (11720944_at) / RFU, VPS4B / Fold change vs veh, VPS4B / RFU, CREB1 / Fold change vs veh, CREB1 / RFU, DNAJC13 / Fold change vs veh, DNAJC13 / RFU, GNAQ / Fold change vs veh, GNAQ / RFU, CDK5R1 / Fold change vs veh, CDK5R1 / RFU, ZRANB3 / Fold change vs veh, ZRANB3 / RFU, CUL4A / Fold change vs veh, CUL4A / RFU, CCNY / Fold change vs veh, CCNY / RFU, UFL1 / Fold change vs veh, UFL1 / RFU, COG3 / Fold change vs veh, COG3 / RFU, DIAPH2 / Fold change vs veh, DIAPH2 / RFU, SKA2 / Fold change vs veh, SKA2 / RFU, AFF3 / Fold change vs veh, AFF3 / RFU, LMF1 / Fold change vs veh, LMF1 / RFU, IPO11 / Fold change vs veh, IPO11 / RFU, DFFB / Fold change vs veh, DFFB / RFU, FOXP1 / Fold change vs veh, FOXP1 / RFU, CARD8 / Fold change vs veh, CARD8 / RFU, STRN3 / Fold change vs veh, STRN3 / RFU, ADK / Fold change vs veh, ADK / RFU, RASSF2 / Fold change vs veh, RASSF2 / RFU, WIPF1 / Fold change vs veh, WIPF1 / RFU, LARP1B / Fold change vs veh, LARP1B / RFU, RASA1 / Fold change vs veh, RASA1 / RFU, RB1 / Fold change vs veh, RB1 / RFU, PPFIA1 / Fold change vs veh, PPFIA1 / RFU, MAT2A / Fold change vs veh, MAT2A / RFU, CCT5 / Fold change vs veh, CCT5 / RFU, WDR92 / Fold change vs veh, WDR92 / RFU, CUX1 / Fold change vs veh, CUX1 / RFU, TTC7A / Fold change vs veh, TTC7A / RFU, TMEM135 / Fold change vs veh, TMEM135 / RFU, DEPTOR / Fold change vs veh, DEPTOR / RFU, CPM / Fold change vs veh, CPM / RFU, DNAJB6 / Fold change vs veh, DNAJB6 / RFU, CACNA2D3 / Fold change vs veh, CACNA2D3 / RFU, DTX4 / Fold change vs veh, DTX4 / RFU, TFCP2 / Fold change vs veh, TFCP2 / RFU, GMCL1 /// GMCL1P1 / Fold change vs veh, GMCL1 /// GMCL1P1 / RFU, AEBP2 / Fold change vs veh, AEBP2 / RFU, SNHG1 /// SNORD22 /// SNORD25 /// SNORD26 /// SNORD27 /// SNORD28 /// SNORD29 /// SNORD31 / Fold change vs veh, SNHG1 /// SNORD22 /// SNORD25 /// SNORD26 /// SNORD27 /// SNORD28 /// SNORD29 /// SNORD31 / Fold change (Aza/veh), C12orf56 (ProbeSet 11735607_a_at) / Fold change (ACY-1035/veh), C12orf56 (ProbeSet 11735607_a_at) / Fold change (Aza/veh), FGFR1OP (ProbeSet 11751329_s_at) / Fold change (ACY-1035/veh), FGFR1OP (ProbeSet 11751329_s_at) / Fold change (Aza/veh), VPS36 (ProbeSet 11739960_a_at) / Fold change (ACY-1035/veh), VPS36 (ProbeSet 11739960_a_at) / RFU SYPL1 (11715823_x_at) / Fold change /veh SYPL1 (11715823_x_at) / RFU IGFBP7 (11715501_s_at) / Fold change /veh IGFBP7 (11715501_s_at) / RFU REEP3 (11722064_at) / Fold change /veh REEP3 (11722064_at) / RFU IGLL1 (11728026_x_at) / Fold change /veh IGLL1 (11728026_x_at): dose or concentration left out as unconfirmed
Conditions: ProbeSet 11725901_x_at; LIST B

Structure (SMILES): Nc1ccc(-c2cccs2)cc1NC(=O)c1ccc2c(c1)cc(C1CC1)n2CCN1CCOCC1 [ACY-1035]
- Fold change vs veh, RWDD3: 0.90
